Read-outs that look alike come from different tables or passages of the source.
How the values were obtained:
[1] = tested on: Klebsiella pneumoniae (KPN) isolates; test: MIC of compounds alone and combined with antibacterials, broth microdilution (CLSI); type: cell-based; settings: for MIC: Klebsiella pneumoniae
Outline: (§1)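 First, log-phase suspensions are brought to a final 5·10^5 CFU/mL in cation-adjusted Mueller-Hinton broth. Then plates with compound, antibacterial, or both incubate 16-20 h at 35° C under ambient air. Finally, visual inspection gives the lowest growth-preventing concentration for each agent.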

[2] = tested on: Salmonella typhimurium (STY) isolates; test: as above; type: cell-based
Outline: as §1

CC(C)(O/N=C(\C(=O)N[C@@H]1C(=O)N2C(C(=O)[O-])=C(C[n+]3ccccc3)CS[C@H]12)c1csc(N)n1)C(=O)O [CAZ, Ceftazidime]
<=0.25 μg/mL: MIC ATB in combination ([1]; KPN 131119, AF1 @ 8 μg/mL) | MIC ATB in combination ([1]; KPN 160143, AF1 @ 8 μg/mL) | MIC ATB in combination ([1]; KPN 190128, AF1 @ 8 μg/mL) | MIC ATB in combination ([1]; KPN 190270, AF1 @ 8 μg/mL) | MIC ATB in combination ([1]; KPN 190425, AF1 @ 4 μg/mL) | MIC ATB in combination ([1]; KPN 190425, AF1 @ 8 μg/mL) | MIC ATB in combination ([1]; KPN 190551, AF1 @ 4 μg/mL) | MIC ATB in combination ([1]; KPN 190551, AF1 @ 8 μg/mL) | MIC ATB in combination ([1]; KPN 200047, AF1 @ 4 μg/mL) | MIC ATB in combination ([1]; KPN 200047, AF1 @ 8 μg/mL) | MIC ATB in combination ([1]; KPN 200327, AF1 @ 4 μg/mL) | MIC ATB in combination ([1]; KPN 200327, AF1 @ 8 μg/mL) | MIC ATB in combination ([1]; KPN 260251, AF1 @ 8 μg/mL) | MIC ATB in combination ([1]; KPN 260376, AF1 @ 4 μg/mL) | MIC ATB in combination ([1]; KPN 260376, AF1 @ 8 μg/mL) | MIC ATB in combination ([1]; KPN 270077, AF1 @ 4 μg/mL) | MIC ATB in combination ([1]; KPN 270077, AF1 @ 8 μg/mL) | MIC ATB in combination ([1]; KPN 700603, AF1 @ 8 μg/mL) | MIC ATB in combination ([1]; KPN ARA, AF1 @ 4 μg/mL) | MIC ATB in combination ([1]; KPN ARA, AF1 @ 8 μg/mL) | MIC ATB in combination ([1]; KPN BAA-1898, AF1 @ 8 μg/mL) | MIC ATB in combination ([1]; KPN LIB, AF1 @ 4 μg/mL) | MIC ATB in combination ([1]; KPN LIB, AF1 @ 8 μg/mL) | MIC ATB in combination ([1]; KPN UFR22_O, AF1 @ 4 μg/mL) | MIC ATB in combination ([1]; KPN UFR22_O, AF1 @ 8 μg/mL) | MIC ATB in combination ([1]; KPN UFR23, AF1 @ 4 μg/mL) | MIC ATB in combination ([1]; KPN UFR23, AF1 @ 8 μg/mL) | MIC ATB in combination ([1]; KPN UFR25, AF1 @ 8 μg/mL) | MIC ATB in combination ([1]; KPN UFR28, AF1 @ 4 μg/mL) | MIC ATB in combination ([1]; KPN UFR28, AF1 @ 8 μg/mL) | MIC ATB in combination ([1]; KPN UFR65, AF1 @ 8 μg/mL) | MIC ATB in combination ([1]; KPN UFR66, AF1 @ 8 μg/mL) | MIC ATB in combination ([1]; KPN UFR80, AF1 @ 4 μg/mL) | MIC ATB in combination ([1]; KPN UFR80, AF1 @ 8 μg/mL) | MIC ATB in combination ([1]; KPN UFR215, AF1 @ 4 μg/mL) | MIC ATB in combination ([1]; KPN UFR215, AF1 @ 8 μg/mL) | MIC ATB in combination ([1]; KPN UFR216, AF1 @ 4 μg/mL) | MIC ATB in combination ([1]; KPN UFR216, AF1 @ 8 μg/mL) | MIC ATB in combination ([1]; KPN UFR217, AF1 @ 4 μg/mL) | MIC ATB in combination ([1]; KPN UFR217, AF1 @ 8 μg/mL) | MIC ATB in combination ([1]; KPN UFR219, AF1 @ 8 μg/mL) | MIC ATB in combination ([1]; KPN UFR221, AF1 @ 8 μg/mL) | MIC ATB in combination [2]
8 µg/mL: MIC ATB in combination ([1]; KPN 260252, AF1 @ 8 μg/mL) | MIC ATB in combination ([1]; KPN UFR66, AF1 @ 4 μg/mL) | MIC ATB in combination ([1]; KPN UFR222, AF1 @ 4 μg/mL)
2 µg/mL: MIC ATB in combination ([1]; KPN 140513, AF1 @ 8 μg/mL) | MIC ATB in combination ([1]; KPN UFR65, AF1 @ 4 μg/mL) | MIC ATB in combination ([1]; KPN UFR77, AF1 @ 8 μg/mL) | MIC ATB in combination ([1]; KPN UFR79, AF1 @ 4 μg/mL) | MIC ATB in combination ([1]; KPN UFR81, AF1 @ 4 μg/mL) | MIC ATB in combination ([1]; KPN UFR220, AF1 @ 4 μg/mL) | MIC ATB in combination ([1]; KPN UFR227O, AF1 @ 4 μg/mL) | MIC ([1]; strain KPN UFR22_O (TEM-1, SHV-1, OXA-48), ATB alone, read-out: MIC)
16 µg/mL: MIC ATB in combination ([1]; KPN 140513, AF1 @ 4 μg/mL) | MIC ATB in combination ([1]; KPN UFR67, AF1 @ 4 μg/mL) | MIC ATB in combination ([1]; KPN UFR76, AF1 @ 4 μg/mL) | MIC ATB in combination ([1]; KPN UFR76, AF1 @ 8 μg/mL) | MIC ([1]; strain KPN UFR79 (DHA-1, OXA-1), ATB alone, read-out: MIC) | MIC ([1]; strain KPN UFR221 (TEM-1, SHV-11, CTX-M-14, DHA-1), ATB alone, read-out: MIC)
256 µg/mL: MIC ([1]; BAA1898)
0.5 µg/mL: MIC ATB in combination ([1]; KPN 190128, AF1 @ 4 μg/mL) | MIC ATB in combination ([1]; KPN 190270, AF1 @ 4 μg/mL) | MIC ATB in combination ([1]; KPN UFR24, AF1 @ 8 μg/mL) | MIC ATB in combination ([1]; KPN UFR25, AF1 @ 4 μg/mL) | MIC ATB in combination ([1]; KPN UFR27, AF1 @ 8 μg/mL) | MIC ATB in combination ([1]; KPN UFR81, AF1 @ 8 μg/mL) | MIC ATB in combination ([1]; KPN UFR219, AF1 @ 4 μg/mL) | MIC ATB in combination ([1]; KPN UFR221, AF1 @ 4 μg/mL) | MIC ([1]; strain KPN UFR23 (TEM-1, SHV-1, OXA-48), ATB alone, read-out: MIC) | MIC ([1]; strain KPN UFR80 (SHV-11, DHA-1, OXA-1), ATB alone, read-out: MIC)
0.25 µg/mL: MIC ([1]; strain KPN LIB (SHV-11, OXA-48), ATB alone, read-out: MIC)
4 µg/mL: MIC ATB in combination ([1]; KPN UFR27, AF1 @ 4 μg/mL) | MIC ATB in combination ([1]; KPN UFR67, AF1 @ 8 μg/mL) | MIC ATB in combination ([1]; KPN UFR68, AF1 @ 4 μg/mL) | MIC ATB in combination ([1]; KPN UFR77, AF1 @ 4 μg/mL) | MIC ATB in combination ([1]; KPN UFR222, AF1 @ 8 μg/mL)
1 µg/mL: MIC ATB in combination ([1]; KPN 160143, AF1 @ 4 μg/mL) | MIC ATB in combination ([1]; KPN 260251, AF1 @ 4 μg/mL) | MIC ATB in combination ([1]; KPN 700603, AF1 @ 4 μg/mL) | MIC ATB in combination ([1]; KPN BAA-1898, AF1 @ 4 μg/mL) | MIC ATB in combination ([1]; KPN UFR24, AF1 @ 4 μg/mL) | MIC ATB in combination ([1]; KPN UFR68, AF1 @ 8 μg/mL) | MIC ATB in combination ([1]; KPN UFR79, AF1 @ 8 μg/mL) | MIC ATB in combination ([1]; KPN UFR220, AF1 @ 8 μg/mL) | MIC ATB in combination ([1]; KPN UFR227O, AF1 @ 8 μg/mL)
32 µg/mL: MIC ATB in combination ([1]; KPN 260252, AF1 @ 4 μg/mL) | MIC ATB in combination ([1]; KPN UFR78, AF1 @ 8 μg/mL) | MIC ([1]; strain KPN 200327 (TEM-1, SHV-1, CTX-M-15, OXA-1), ATB alone, read-out: MIC) | MIC ([1]; strain KPN UFR77 (CMY-2), ATB alone, read-out: MIC)

Reference: patent US20200017496A1 (priority 2017, published 2020)
